Source: article PMC6479099, “Aminoguanidines: New leads for treatment of Giardia duodenalis infection” (International Journal for Parasitology: Drugs and Drug …, 2019)
In brackets after ≈: the same amount, converted by molar mass. Read-outs that look alike come from different tables or passages of the source.

Columns and labels:
giardiasis = tested on: giardiasis; parameters: method as in Wright et al., 2003; conditions: ref Wright et al., 2003; cited from earlier work
[1] = tested on: Giardia duodenalis BAH2c2 strain, assemblage A; assay: Resazurin reduction assay, assemblage A isolate; type: cell-based; conditions: for MLC (minimum lethal concentration), Assemblage A: concentration at which no metabolism of resazurin was observed; for IC50: Giardia duodenalis, 24 h, read-out: IC50, Assemblage A
Description: (§1) G. duodenalis (BAH2c2 and BAH12 strain) was cultivated according to the method of Clark and Diamond in Keister's modified TYI-S-33 medium, supplemented with heat inactivated foetal bovine serum (Hyclone™, Thermo Fisher Scientific, Scoresby, Victoria, Australia) at 37 °C in plastic 9 mL screw-capped test tubes (nunc, Thermo Fisher Scientific, Scoresby, Victoria, Australia). Subcultures were performed once a confluent monolayer was observed, approximately 2–3 times per week ([Clark and Diamond, 2002]).
(§2) The in-vitro compound efficacy was determined using a resazurin reduction assay as previously described ([Benere et al., 2007]). The media of confluent cultures was replaced with fresh media and the cultures were placed on ice for 40 min to detach trophozoites. Trophozoites were enumerated using a haemocytometer and 50 000 trophozoites were added to each test well of a 96 well plate. Doubling or tripling dilutions of the test compounds were added to wells beginning at 25 or 50 μM compound concentration (previously prepared in DMSO). Metronidazole and DMSO (vehicle only) were used as controls. Plates were incubated under anaerobic conditions, using anaerobic gas generating sachets, (AnaeroGen, Thermo Fisher Scientific, Scoresby, Victoria, Australia) for 24 h at 37 °C. After incubation the media was removed and replaced with an equal volume of warm PBS. Resazurin (Alamarblue, Thermo Fisher Scientific, Scoresby, Victoria, Australia) was then added at 10% of the total volume of the wells. Plates were further incubated (1.5 h) for colour development and absorbance read at 570 nm and 630 nm. The percentage resazurin reduction was then calculated using the following formula:((εoxi630 x A570) – (εoxi570 x A630))/((εred570 x C630)-([…])) x 100Where: εoxi630 = 34798, εoxi570 = 80586, A570 = absorbance at 570 nm, A630 = absorbance at 630 nm, εred570 = 155677, εred630 = 5494, C630 = absorbance of negative control well at 630 nm and C570 = absorbance of negative control well at 570 nm.
(§3) For the resazurin reduction assay the mean and standard error of the mean were determined with each assay completed in triplicate. The IC50 was calculated using the log (inhibitor) vs. normalised response – variable slope function in Graphpad Prism. For the adherence assay mean and standard error of the mean were calculated and data analysed using an unpaired t-test, relative to untreated control.
(§4) The IC50 of each compound was determined using a resazurin reduction assay, which measures the metabolic activity of cells, using the log (inhibitor) vs. normalised response – variable slope function in Graphpad Prism. The compounds were tested against an assemblage A (BAH2c2, 24 h) and an assemblage B (BAH12, 24 h) isolate (Table 1). […] The effect of the compounds on the proliferation of Giardia trophozoites (BAH2c2) was also determined.
Absorbance was measured (630 and 570 nm), percent reduction of resazurin calculated and data presented as a percentage of the growth control. Treatment groups are: square - metronidazole; triangle –NCL 099; diamond - robenidine; and circle - NCL 062. Error ± SEM, n = 3. Data represents a typical experiment. Note the break in the x-axis indicates a change in the scale of drug concentration.

[2] = tested on: Giardia duodenalis BAH12, assemblage B; assay: Resazurin reduction assay, assemblage B isolate; type: cell-based; conditions: BAH12, 24 h; for IC50: Giardia duodenalis, resazurin metabolic assay
Description: as §1, §2, §3, §4

[3] = tested on: G. duodenalis trophozoites; assay: Giardia recovery assay; type: cell-based, Giardia duodenalis; conditions: 5 h at 5x the IC50, counts at 24 and 48 h post exposure
Description: G. duodenalis trophozoites were harvested on ice as outlined above and 5 × 10^5 cells/mL were added to 1.5 mL centrifuge tubes. […] After exposure cells were collected by placing tubes on ice for 40 min followed by centrifugation at 900×g for 5 min. The supernatant was removed and cells were resuspended in 8 mL of fresh media (in a 9 mL culture tube). The number of trophozoites was counted using a haemocytometer and cells were incubated for 48 h with cell numbers being determined at 24 and 48 h.
Fig. 7 Recovery assay of Giardia duodenalis exposed to robenidine and metronidazole. Giardia trophozoites were exposed to robenidine or metronidazole for 5 h at 5x the IC50. Key: closed circle – growth control, triangle – metronidazole, square – robenidine, open circle – NCL 062, diamond – NCL 099. Cell numbers were determined at 24 and 48 h post exposure. Error ± SD.

[4] = tested on: Giardia duodenalis BAH2c2 strain, assemblage A; assay: Resazurin reduction assay, assemblage A isolate; type: cell-based
[5] = tested on: Giardia duodenalis trophozoites; assay: Modified adherence assay; type: cell-based; conditions: 4 μM, 5 h exposure
Description: (§5) A second screening method, based on counting adherent trophozoites, was developed and used to validate the primary screen method, modified from earlier adherence assay protocols ([Crouch et al., 1986]). The assay was prepared in 24 well plates with plastic coverslips placed in the bottom. Trophozoites were prepared as above by placing on ice and ∼5 × 10^5 cells/mL were added to each well. Drugs prepared in DMSO were added at the required concentration, with the DMSO concentration never exceeding 1%. Assay plates were incubated for 5 h at 37 °C under anaerobic conditions, the media removed and cells adhering to the coverslips were fixed with glutaraldehyde or methanol. Once the coverslips were dry, cells were stained with a Romanowsky stain variant (Rapid stain), fixed to a glass slide and imaged at 10x or 100x magnification. Images (10x magnification) were processed with DotCount v1.2 software (http://reuter.mit.edu/, 2008–2012 ^© Martin Reuter) to count the number of cells present and data analysed using GraphPad Prism version 6.00 for Windows, GraphPad Software, La Jolla California USA, www.graphpad.com. Images (100x magnification) were assessed for obvious morphological changes.
The results for the in vitro drug efficacy studies were analysed using GraphPad Prism version 6.00 for Windows, GraphPad Software, La Jolla California USA, www.graphpad.com. For the resazurin reduction assay the mean and standard error of the mean were determined with each assay completed in triplicate. The IC50 was calculated using the log (inhibitor) vs. normalised response – variable slope function in Graphpad Prism. For the adherence assay mean and standard error of the mean were calculated and data analysed using an unpaired t-test, relative to untreated control.
Fig. 3 Inhibition of adherence of Giardia duodenalis by metronidazole (Mz), robenidine, NCL 062 and NCL 099. Cells were exposed to the compounds for 5 h before staining. Stained cells were imaged at 10x magnification and counted using DotCount™ software. Each assay was completed in triplicate and 5 images taken per sample. Top. Number of adherent trophozoites after exposure to 4 μM of each compound for 5 h; Bottom. An example of the Dotcount software identifying trophozoites at higher magnification. Left: stained trophozoites, Right: highlighted trophozoites identified by the Dotcount software. Each highlighted cell is counted individually. Error ± SEM. * p-value <0.05, ** p-value <0.0001.

[6] = tested on: Giardia trophozoites (BAH2c2); assay: Proliferation of Giardia trophozoites (resazurin, 96 h); type: cell-based, Giardia duodenalis; conditions: read-out: IC50prol, Assemblage A (50% inhibition in the proliferation assay)
Description: The effect of the compounds on the proliferation of Giardia trophozoites was determined following the protocol outlined above, with the following modifications. The number of trophozoites was decreased to 1000 per well and the cells were incubated in the presence of each compound for 96 h at 37 °C.
as §4

AT region of DNA = tested on: AT region of DNA; parameters: method as in Nguyen et al., 2002; conditions: ref Nguyen et al., 2002; cited from earlier work
[7] = In vitro cytotoxicity, murine macrophage cells; conditions: mouse, RAW 264.7 murine macrophage cells
Giardia trophozoites = assay: Morphology of stained trophozoites at 100x magnification; type: cell-based, Giardia duodenalis
Description: as §5
Fig. 4 Morphological effect of Robenidine and NCL 099 on Giardia trophozoites. Giardia trophozoites were exposed to each compound for 24 h before fixation with glutaraldehyde and staining following the Diff quik protocol. A-control cells, B – cells treated with metronidazole (IC50, 2 μM), C- robendine treated cells (IC50, 2 μM), D – NCL 099 treated cells (IC50, 3 μM), E − NCL 099 treated cells (2 x IC50).

[8] = BAH2c2, 24 h, resazurin metabolic assay
[9] = BAH2c2, 1000 trophozoites per well

Compound	Treatment success rate (giardiasis)	MLC (minimum lethal concentration), Assemblage A ([1]; BAH2c2, 24 h)	IC50 [1, 8]	MLC, Assemblage B [2]	IC50 [2]	Recovery of trophozoites after short-term exposure [3]	Effect on adherence of trophozoites [5]	IC50 [6, 9]	GI50 [7]	further results
Cc1ncc([N+](=O)[O-])n1CCO [Metronidazole]	80–90%	2.8 µM (≈ 0.479 µg/mL)	2000 ± 1000 nM	16.6 µM (≈ 2.84 µg/mL)	3800 ± 500 nM	did not have any permanent effects	no significant effect on cell adherence	1700 ± 2000 nM	–	Time required to exhibit inhibitory activity [4]: 24 h
Cl.Cl.Cl.N=C(N)c1cccc(/C=N/N=C(\N)N/N=C/c2cccc(C(=N)N)c2)c1 [CGP 40215A]	–	–	–	–	–	–	–	–	–	Binding to the AT region of DNA (AT region of DNA): strong bond
CCCSc1ccc2nc(NC(=O)OC)[nH]c2c1 [Albendazole]	–	0.02 to 0.07 µM	–	–	–	–	–	–	–	Reported efficacy (giardiasis): 62–95%; IC50 [1]: < 20 nM; IC50 [6]: 800 ± 700 nM
CCS(=O)(=O)CCn1c([N+](=O)[O-])cnc1C [tinidazole]	80–90%	–	–	–	–	–	–	–	–	–
CC(C)(C)c1ccc(/C=N/NC(=N)N/N=C/c2ccc(C(C)(C)C)cc2)cc1.Cl [NCL 099, N′,2-bis((E)-4-(tert-butyl)benzylidene)hydrazine-1-carboximidhydrazide hydrochloride]	–	8.3 µM	3000 ± 300 nM	5.5 µM	3300 ± 200 nM	able to recover after short-term exposure but growth was slower	significantly affected adherence of trophozoites at 4 μM, but did not completely inhibit adherence	11100 ± 800 nM	7300 nM	Morphological effect on stained trophozoites at 2 x the IC50 (Giardia trophozoites; 2 x IC50, 100 x magnification): disintegration of the cell membrane; Morphological effect on stained trophozoites at the IC50 (Giardia trophozoites; at IC50, 100 x magnification): decrease in the membrane stain intensity
C/C(=N\NC(=N)N/N=C(\C)c1ccc(Cl)cc1)c1ccc(Cl)cc1.Cl [NCL 062, (E)-N'-((E)-1-(4-chlorophenyl)ethylidene)-2-(1-(4-chlorophenyl)ethylidene)hydrazine-1-carboximidhydrazide hydrochloride]	–	0.9 µM	800 ± 600 nM	3.1 µM	1800 ± 0.8 nM	unable to recover	complete inhibition of adherence	2000 ± 1300 nM	4000 nM	–
